In patent US12077503B2, “Substituted cyclic amides and their use as herbicides” (FMC CORPORATION, priority 2015, dated 2024):

Legend:
Type in all cases: in vivo
[1] = tested on: sedge, umbrella (small-flower umbrella sedge, Cyperus difformis); assay: Test B flooded paddy test; conditions: Flood, 0 to 100 scale where 0 is no effect and 100 is complete control, 13 to 15 d
Description: (§1) Plant species in the flooded paddy test selected from rice (Oryra sativa), sedge, umbrella (small-flower umbrella sedge, Cyperus difformis), ducksalad (Heteranthera limosa), and barnyardgrass (Echinochloa crus-galli) were grown to the 2-leaf stage for testing. At time of treatment, test pots were flooded to 3 cm above the soil surface, treated by application of test compounds directly to the paddy water, and then maintained at that water depth for the duration of the test. Treated plants and controls were maintained in a greenhouse for 13 to 15 d, after which time all species were compared to controls and visually evaluated. Plant response ratings, summarized in Table B, are based on a scale of 0 to 100 where 0 is no effect and 100 is complete control. A dash (-) response means no test result.

[2] = tested on: rice (Oryra sativa); assay: Test B flooded paddy test; conditions: Flood, 0 to 100 scale where 0 is no effect and 100 is complete control, 13 to 15 d
Description: as §1

[3] = tested on: ducksalad (Heteranthera limosa); assay: Test B flooded paddy test; conditions: Flood, 0 to 100 scale where 0 is no effect and 100 is complete control, 13 to 15 d
Description: as §1

[4] = tested on: barnyardgrass (Echinochloa crus-galli); assay: Test B flooded paddy test; conditions: Flood, 0 to 100 scale where 0 is no effect and 100 is complete control, 13 to 15 d
Description: as §1

[5] = tested on: pigweed (Amaranthus retroflexus); assay: Test A preemergence; conditions: for Plant response rating, Pigweed: 125 g ai/ha; for Pigweed plant response rating (0 to 100 scale, 0 is no effect, 100 is complete control): visual injury approx. 10 d
Excerpt: (§2) Seeds of plant species selected from barnyardgrass (Echinochloa crus-galli), Kochia (Kochia scoparia), ragweed (common ragweed, Ambrosia elatior), ryegrass, Italian (Italian ryegrass, Lolium multiflorum), crabgrass, large (Digitaria sanguinalis), giant foxtail (Setaria faberii), green foxtail (Setaria viridis), morningglory (Ipomoea spp.), pigweed (Amaranthus retroflexus), velvetleaf (Abutilon theophrasti), wheat (Triticum aestivum), and corn (Zea mays) were planted into a blend of loam soil and sand and treated preemergence with a directed soil spray using test chemicals formulated in anon-phytotoxic solvent mixture which included a surfactant.
(§3) At the same time, plants selected from these crop and weed species and also blackgrass (Alopecurus myosuroides), and Galium (catchweed bedstraw, Galium aparine) were planted in pots containing the same blend of loam soil and sand and treated with postemergence applications of test chemicals formulated in the same manner. Plants ranged in height from 2 to 10 cm and were in the one- to two-leaf stage for the postemergence treatment. Treated plants and untreated controls were maintained in a greenhouse for approximately 10 d, after which time all treated plants were compared to untreated controls and visually evaluated for injury. Plant response ratings, summarized in Table A, are based on a 0 to 100 scale where 0 is no effect and 100 is complete control. A dash (-) response means no test result.

[6] = tested on: giant foxtail (Setaria faberii); assay: Test A preemergence; conditions: for Plant response rating, Foxtail, Giant: 125 g ai/ha; for Foxtail, Giant plant response rating (0 to 100 scale, 0 is no effect, 100 is complete control): visual injury approx. 10 d
Excerpt: as §2, §3

[7] = tested on: ryegrass, Italian (Italian ryegrass, Lolium multiflorum); assay: Test A preemergence; conditions: for Plant response rating, Ryegrass, Italian: 125 g ai/ha; for Ryegrass, Italian plant response rating (0 to 100 scale, 0 is no effect, 100 is complete control): visual injury approx. 10 d
Excerpt: as §2, §3

[8] = tested on: barnyardgrass (Echinochloa crus-galli); assay: Test A preemergence; conditions: for Plant response rating, Barnyardgrass: 125 g ai/ha; for Barnyardgrass plant response rating (0 to 100 scale, 0 is no effect, 100 is complete control): visual injury approx. 10 d
Excerpt: as §2, §3

[9] = tested on: ragweed (common ragweed, Ambrosia elatior); assay: Test A preemergence; conditions: for Plant response rating, Ragweed: 125 g ai/ha; for Ragweed plant response rating (0 to 100 scale, 0 is no effect, 100 is complete control): visual injury approx. 10 d
Excerpt: as §2, §3

[10] = tested on: Kochia (Kochia scoparia); assay: Test A preemergence; conditions: for Plant response rating, Kochia: 125 g ai/ha; for Kochia plant response rating (0 to 100 scale, 0 is no effect, 100 is complete control): visual injury approx. 10 d
Excerpt: as §2, §3

[11] = tested on: pigweed (Amaranthus retroflexus); assay: Test A postemergence; conditions: for Pigweed plant response rating: visual injury rating on 0 to 100 scale (0 no effect, 100 complete control), approx. 10 d
Excerpt: as §2, §3

[12] = tested on: wheat (Triticum aestivum); assay: Test A postemergence; conditions: for Wheat plant response rating: visual injury rating on 0 to 100 scale (0 no effect, 100 complete control), approx. 10 d
Excerpt: as §2, §3

[13] = tested on: corn (Zea mays); assay: Test A postemergence; conditions: for Corn plant response rating: visual injury rating on 0 to 100 scale (0 no effect, 100 complete control), approx. 10 d
Excerpt: as §2, §3

[14] = tested on: giant foxtail (Setaria faberii); assay: Test A postemergence; conditions: for Foxtail, Giant plant response rating: visual injury rating on 0 to 100 scale (0 no effect, 100 complete control), approx. 10 d
Excerpt: as §2, §3

[15] = tested on: ryegrass, Italian (Italian ryegrass, Lolium multiflorum); assay: Test A postemergence; conditions: for Ryegrass, Italian plant response rating: visual injury rating on 0 to 100 scale (0 no effect, 100 complete control), approx. 10 d
Excerpt: as §2, §3

[16] = tested on: blackgrass (Alopecurus myosuroides); assay: Test A postemergence
Excerpt: as §2, §3

[17] = tested on: barnyardgrass (Echinochloa crus-galli); assay: Test A postemergence
Excerpt: as §2, §3

[18] = tested on: ragweed (common ragweed, Ambrosia elatior); assay: Test A postemergence; conditions: for Ragweed plant response rating: visual injury rating on 0 to 100 scale (0 no effect, 100 complete control), approx. 10 d
Excerpt: as §2, §3

[19] = tested on: Kochia (Kochia scoparia); assay: Test A postemergence; conditions: for Kochia plant response rating: visual injury rating on 0 to 100 scale (0 no effect, 100 complete control), approx. 10 d
Excerpt: as §2, §3

[20] = tested on: Galium (catchweed bedstraw, Galium aparine); assay: Test A postemergence; conditions: for Galium plant response rating: visual injury rating on 0 to 100 scale (0 no effect, 100 complete control), approx. 10 d
Excerpt: as §2, §3

[21] = Preemergence, visual injury after approximately 10 d, 0 to 100 scale where 0 is no effect and 100 is complete control
[22] = Postemergence, 500 g ai/ha, 0 to 100 scale where 0 is no effect and 100 is complete control
[23] = 125 g ai/ha, postemergence, visual injury rating on 0 to 100 scale (0 no effect, 100 complete control), approx. 10 d
[24] = preemergence, 0 to 100 scale (0 no effect, 100 complete control)
[25] = Preemergence, 500 g ai/ha, 0 is no effect, 100 is complete control
[26] = 500 g ai/ha, postemergence, 0 to 100 scale, 0 no effect, 100 complete control
[27] = Postemergence, 125 g ai/ha, visual injury, 0 to 100 scale (0 no effect, 100 complete control), approx. 10 d
[28] = 125 g ai/ha, postemergence, visual rating after approx. 10 d, 0 to 100 scale (0 no effect, 100 complete control)

O=C1NCC(c2ccnc(C(F)(F)F)c2)C1C(=O)Nc1cccc(F)c1F (racemic) [Compound 514]
60: Ryegrass, Italian plant response rating (0 to 100 scale, 0 is no effect, 100 is complete control) ([7]; Preemergence, 500 g ai/ha)
70: Foxtail, Giant plant response rating ([14]; 125 g ai/ha, postemergence)
100: Plant response rating, Ducksalad ([3]; 250 g ai/ha)
90: Plant response rating, Foxtail, Giant [6, 21] | Foxtail, Giant plant response rating (0 to 100 scale, 0 is no effect, 100 is complete control) ([6]; Preemergence, 500 g ai/ha) | Plant response rating, Barnyardgrass [8, 21] | Barnyardgrass plant response rating (0 to 100 scale, 0 is no effect, 100 is complete control) ([8]; Preemergence, 500 g ai/ha) | Plant response rating, Foxtail, Giant [14, 22] | Plant response rating, Barnyardgrass [17, 22]
20: Plant response rating, Rice ([2]; 250 g ai/ha) | Plant response rating, Ryegrass, Italian [7, 21] | Ryegrass, Italian plant response rating ([15]; 125 g ai/ha, postemergence) | Blackgrass plant response rating [16, 23] | Plant response rating, Ragweed [18, 22]
80: Plant response rating, Corn [13, 22] | Barnyardgrass plant response rating [17, 23]
50: Plant response rating, Barnyardgrass ([4]; 250 g ai/ha) | Kochia plant response rating (0 to 100 scale, 0 is no effect, 100 is complete control) ([10]; Preemergence, 500 g ai/ha) | Plant response rating, Blackgrass [16, 22] | Plant response rating, Kochia [19, 22] | Plant response rating, Galium [20, 22]
40: Pigweed plant response rating (0 to 100 scale, 0 is no effect, 100 is complete control) ([5]; Preemergence, 500 g ai/ha) | Plant response rating, Wheat [12, 22] | Plant response rating, Ryegrass, Italian [15, 22] | Galium plant response rating ([20]; 125 g ai/ha, postemergence)
0: Plant response rating, Sedge, Umbrella ([1]; 250 g ai/ha) | Plant response rating, Pigweed [5, 21] | Plant response rating, Ragweed [9, 21] | Plant response rating, Kochia [10, 21] | Pigweed plant response rating ([11]; 125 g ai/ha, postemergence) | Ragweed plant response rating ([18]; 125 g ai/ha, postemergence)
30: Ragweed plant response rating (0 to 100 scale, 0 is no effect, 100 is complete control) ([9]; Preemergence, 500 g ai/ha) | Plant response rating, Pigweed [11, 22] | Wheat plant response rating ([12]; 125 g ai/ha, postemergence) | Corn plant response rating ([13]; 125 g ai/ha, postemergence) | Kochia plant response rating ([19]; 125 g ai/ha, postemergence)

O=C1NCC(c2cccc(OCC(F)F)c2)C1C(=O)Nc1ccccc1Cl (stereo not drawn) [Compound 390]
80: Plant response rating, Foxtail, Giant [6, 24] | Barnyardgrass plant response rating (0 to 100 scale) [8, 25] | Plant response rating, Foxtail, Giant [14, 26]
0: Plant response rating, Sedge, Umbrella ([1]; 500 g ai/ha) | Plant response rating, Rice ([2]; 500 g ai/ha) | Plant response rating, Pigweed [5, 24] | Pigweed plant response rating (0 to 100 scale) [5, 25] | Plant response rating, Ryegrass, Italian [7, 24] | Ryegrass, Italian plant response rating (0 to 100 scale) [7, 25] | Plant response rating, Ragweed [9, 24] | Ragweed plant response rating (0 to 100 scale) [9, 25] | Plant response rating, Kochia [10, 24] | Kochia plant response rating (0 to 100 scale) [10, 25] | Pigweed plant response rating ([11]; 125 g ai/ha, postemergence) | Wheat plant response rating ([12]; 125 g ai/ha, postemergence) | Plant response rating, Wheat [12, 26] | Corn plant response rating ([13]; 125 g ai/ha, postemergence) | Plant response rating, Corn [13, 26] | Ryegrass, Italian plant response rating ([15]; 125 g ai/ha, postemergence) | Plant response rating, Blackgrass [16, 26] | Plant response rating, Blackgrass [16, 27] | Ragweed plant response rating ([18]; 125 g ai/ha, postemergence) | Plant response rating, Ragweed [18, 26] | Kochia plant response rating ([19]; 125 g ai/ha, postemergence) | Plant response rating, Kochia [19, 26] | Galium plant response rating ([20]; 125 g ai/ha, postemergence) | Plant response rating, Galium [20, 26]
20: Plant response rating, Pigweed [11, 26]
90: Foxtail, Giant plant response rating (0 to 100 scale) [6, 25]
60: Plant response rating, Barnyardgrass [8, 24] | Foxtail, Giant plant response rating ([14]; 125 g ai/ha, postemergence)
50: Plant response rating, Barnyardgrass ([4]; 500 g ai/ha) | Plant response rating, Barnyardgrass [17, 27]
10: Plant response rating, Ryegrass, Italian [15, 26]
65: Plant response rating, Ducksalad ([3]; 500 g ai/ha)
70: Plant response rating, Barnyardgrass [17, 26]

O=C1NCC(c2cc(F)c(F)cc2F)C1C(=O)Nc1ccc(F)cc1F (racemic) [Compound 551]
0: Plant response rating, Sedge, Umbrella ([1]; 250 g ai/ha) | Plant response rating, Pigweed [5, 21] | Pigweed plant response rating (0 to 100 scale, 0 is no effect, 100 is complete control) ([5]; Preemergence, 500 g ai/ha) | Plant response rating, Ryegrass, Italian [7, 21] | Ryegrass, Italian plant response rating (0 to 100 scale, 0 is no effect, 100 is complete control) ([7]; Preemergence, 500 g ai/ha) | Plant response rating, Ragweed [9, 21] | Ragweed plant response rating (0 to 100 scale, 0 is no effect, 100 is complete control) ([9]; Preemergence, 500 g ai/ha) | Plant response rating, Kochia [10, 21] | Kochia plant response rating (0 to 100 scale, 0 is no effect, 100 is complete control) ([10]; Preemergence, 500 g ai/ha) | Plant response rating, Pigweed [11, 28] | Plant response rating, Pigweed [11, 22] | Plant response rating, Wheat [12, 28] | Plant response rating, Wheat [12, 22] | Plant response rating, Corn [13, 28] | Plant response rating, Corn [13, 22] | Plant response rating, Ryegrass, Italian [15, 28] | Plant response rating, Ryegrass, Italian [15, 22] | Plant response rating, Blackgrass [16, 28] | Plant response rating, Blackgrass [16, 22] | Plant response rating, Ragweed [18, 28] | Plant response rating, Ragweed [18, 22] | Plant response rating, Kochia [19, 28] | Plant response rating, Kochia [19, 22] | Plant response rating, Galium [20, 28] | Plant response rating, Galium [20, 22]
50: Plant response rating, Foxtail, Giant [14, 28]
80: Plant response rating, Foxtail, Giant [6, 21] | Plant response rating, Foxtail, Giant [14, 22] | Plant response rating, Barnyardgrass [17, 22]
90: Foxtail, Giant plant response rating (0 to 100 scale, 0 is no effect, 100 is complete control) ([6]; Preemergence, 500 g ai/ha) | Barnyardgrass plant response rating (0 to 100 scale, 0 is no effect, 100 is complete control) ([8]; Preemergence, 500 g ai/ha)
30: Plant response rating, Barnyardgrass [8, 21]
15: Plant response rating, Rice ([2]; 250 g ai/ha)
10: Plant response rating, Barnyardgrass [17, 28]
20: Plant response rating, Barnyardgrass ([4]; 250 g ai/ha)
85: Plant response rating, Ducksalad ([3]; 250 g ai/ha)
